Laboratory results as given in patent US10280150B2 (FORMA TM2, Inc., priority 2014, dated 2019).

biological target: IDH1-R132H recombinant protein (Homo sapiens (Human), UniProt O75874, R132H); test: IDH1-R132H enzymatic assay (inhibition of NADPH consumption, diaphorase/resazurin readout); format: biochemical; details: read-out: Enzyme IDH1 R132H IC50 (Range)
Experimental: Assays were performed in a 384-well black plate. An aliquot of 250 nL of compound was incubated with 10 μL of 30 nM IDH1-R132H or 10 nM IDH1-R132C recombinant protein in assay buffer (50 mM Tris pH=7.5, 150 mM NaCl, 5 mM MgCl2, 0.1% (w/v) Bovine Serum Albumin, and 0.01% Triton X-100) in each well at 25° C. for 15 minutes. After the plate was centrifuged briefly, an aliquot of 10 μL of 2 mM α-ketoglutarate and 20 μM NADPH solution prepared in assay buffer was then added to each well and the reaction was maintained at 25° C. for 45 minutes. An aliquot of 10 μL of diaphorase solution (0.15 U/mL diaphorase and 30 µM Resazurin in assay buffer) was added to each well. The plate was maintained at 25° C. for 15 minutes and then read on a plate reader with excitation and emission wavelengths at 535 nm and 590 nm, respectively. The IC50 of a given compound was calculated by fitting the dose response curve of inhibition of NADPH consumption at a given concentration with the four parameter logistic equation.

IDH1-R132H recombinant protein, sequence (O75874 whole entry R132H): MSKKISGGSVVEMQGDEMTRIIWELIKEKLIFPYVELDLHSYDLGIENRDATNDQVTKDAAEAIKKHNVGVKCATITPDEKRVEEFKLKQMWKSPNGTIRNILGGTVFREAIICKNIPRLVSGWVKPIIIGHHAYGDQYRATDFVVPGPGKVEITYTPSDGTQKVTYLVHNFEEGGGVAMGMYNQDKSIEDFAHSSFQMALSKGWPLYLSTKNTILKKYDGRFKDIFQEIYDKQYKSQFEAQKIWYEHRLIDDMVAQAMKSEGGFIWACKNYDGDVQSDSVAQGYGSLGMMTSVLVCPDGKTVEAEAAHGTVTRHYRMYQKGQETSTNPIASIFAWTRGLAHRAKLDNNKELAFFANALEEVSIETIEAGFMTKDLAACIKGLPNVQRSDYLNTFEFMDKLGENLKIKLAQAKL

| SMILES | IC50 |
| --- | --- |
| C[C@H](Nc1nccc(N(CC(C)(C)C)S(C)(=O)=O)n1)c1cc2cc(Cl)ccc2[nH]c1=O [Compound I-1] | < 100 nM |
| C[C@H](Nc1nccc(CN(C2CC2)S(C)(=O)=O)n1)c1cc2cc(Cl)ccc2[nH]c1=O [Compound I-6, (S)—N-((2-((1-(6-Chloro-2-oxo-1,2-dihydroquinolin-3-yl)ethyl)amino)pyrimidin-4-yl)methyl)-N-cyclopropylmethanesulfonamide] | 100 to 1000 nM |
| C[C@H](Nc1nccc(NC2CC2)n1)c1cc2cc(Cl)ccc2[nH]c1=O [Compound I-9, (S)-6-Chloro-3-(1-((4-(cyclopropylamino)pyrimidin-2-yl)amino)ethyl)quinolin-2(1H)-one] | 1000 to 10000 nM |
| C[C@H](Nc1nccc(N(CC(F)(F)F)S(C)(=O)=O)n1)c1cc2cc(Cl)ccc2[nH]c1=O [Compound I-13] | < 100 nM |
| CC(C)CS(=O)(=O)Nc1ccnc(N[C@@H](C)c2cc3cc(Cl)ccc3[nH]c2=O)n1 [Compound I-18] | 1000 to 10000 nM |
| C[C@H](Nc1nccc(N(CC(C)(C)O)S(C)(=O)=O)n1)c1cc2cc(Cl)ccc2[nH]c1=O [Compound I-19] | 1000 to 10000 nM |
| CC(C)CC(=O)N(c1ccnc(N[C@@H](C)c2cc3cc(Cl)ccc3[nH]c2=O)n1)C1CC1 [Compound I-24, (S)—N-(2-((1-(6-Chloro-2-oxo-1,2-dihydroquinolin-3-yl)ethyl)amino)pyrimidin-4-yl)-N-cyclopropyl-3-methylbutanamide] | 100 to 1000 nM |
| C[C@H](Nc1nccc(NC(=O)CC2CCOCC2)n1)c1cc2cc(Cl)ccc2[nH]c1=O [Compound I-27, (S)—N-(2-((1-(6-chloro-2-oxo-1,2-dihydroquinolin-3-yl)ethyl)amino)pyrimidin-4-yl)-2-(tetrahydro-2H-pyran-4-yl)acetamide] | 100 to 1000 nM |
| CC(=O)N(c1ccnc(N[C@@H](C)c2cc3cc(Cl)ccc3[nH]c2=O)n1)C1CC1 [Compound I-28, (S)—N-(2-((1-(6-chloro-2-oxo-1,2-dihydroquinolin-3-yl)ethyl)amino)pyrimidin-4-yl)-N-cyclopropylacetamide] | 100 to 1000 nM |
| CC(C)[C@H]1COC(=O)N1c1ccnc(N[C@H](C)c2cc3cc(Cl)ccc3[nH]c2=O)n1 [Compound I-43, (S)-3-(2-(((R)-1-(6-Chloro-2-oxo-1,2-dihydroquinolin-3-yl)ethyl)amino)pyrimidin-4-yl)-4-isopropyloxazolidin-2-one] | > 10000 nM |
| CC(Nc1nccc(N2CCOC2=O)n1)c1cc2ccccc2[nH]c1=O (stereo not drawn) [Compound I-49] | 100 to 1000 nM |
| O=C1CCCN1c1ccnc(NCc2cc3cc(Cl)ccc3[nH]c2=O)n1 [Compound I-50] | 100 to 1000 nM |
| Cc1nc(N[C@@H](C)c2cc3cc(Cl)ccc3[nH]c2=O)ncc1Br [Compound I-103] | 100 to 1000 nM |
| CC(C)C[S@@+]([O-])c1ccnc(N[C@@H](C)c2cc3cc(Cl)ccc3[nH]c2=O)n1 [Compound I-106] | 1000 to 10000 nM |
| CC(C)CS(=O)(=O)c1ccnc(N[C@@H](C)c2cc3cc(Cl)ccc3[nH]c2=O)n1 [Compound I-108] | 100 to 1000 nM |
| CC(C)C[S@+]([O-])c1ccnc(N[C@@H](C)c2cc3cc(Cl)ccc3[nH]c2=O)n1 [Compound I-109] | < 100 nM |
| CC(C)CC(c1ccnc(N[C@@H](C)c2cc3cc(Cl)ccc3[nH]c2=O)n1)S(C)(=O)=O (stereo partly drawn) [Compound I-118] | 100 to 1000 nM |
| C[C@H](Nc1nccc(CN2CCCS2(=O)=O)n1)c1cc2cc(Cl)ccc2[nH]c1=O [Compound I-119, (S)-6-chloro-3-(1-((4-((1,1-dioxidoisothiazolidin-2-yl)methyl)pyrimidin-2-yl)amino)ethyl) quinolin-2(1H)-one] | 100 to 1000 nM |
| C[C@H](Nc1nccc(C2CCCS2(=O)=O)n1)c1cc2cc(Cl)ccc2[nH]c1=O (stereo partly drawn) [Compound I-120] | 100 to 1000 nM |
| C[C@H](Nc1nccc(NC2CCOC2)n1)c1cc2cc(Cl)ccc2[nH]c1=O (stereo partly drawn) [Compound I-122, 6-Chloro-3-((1S)-1-((4-((tetrahydrofuran-3-yl)amino)pyrimidin-2-yl)amino)ethyl) quinolin-2(1H)-one] | 1000 to 10000 nM |
| CC(C)CN(c1ccnc(N[C@@H](C)c2cc3cc(Cl)ccc3[nH]c2=O)n1)c1ncco1 [Compound I-128] | 100 to 1000 nM |

The remaining lines, values ahead:

| IC50 | SMILES |
| --- | --- |
| > 10000 nM | C[C@H](Nc1nccc(NS(C)(=O)=O)n1)c1cc2cc(Cl)ccc2[nH]c1=O [Compound I-17] |
| < 100 nM | CC(=O)N(CC(C)(C)C)c1ccnc(N[C@@H](C)c2cc3cc(Cl)ccc3[nH]c2=O)n1 [Compound I-26, (S)—N-(2-((1-(6-Chloro-2-oxo-1,2-dihydroquinolin-3-yl)ethyl)amino)pyrmidin-4-yl)-N-neopentylacetamide] |
| 1000 to 10000 nM | CC(=O)N(c1ccnc(N[C@@H](C)c2cc3cc(Cl)ccc3[nH]c2=O)n1)C(C)(C)C [Compound I-30] |
| 100 to 1000 nM | CC(C)CC(=O)Nc1ccnc(N[C@@H](C)c2cc3cc(Cl)ccc3[nH]c2=O)n1 [Compound I-31] |
| < 100 nM | COCC(=O)Nc1ccnc(N[C@@H](C)c2cc3cc(Cl)ccc3[nH]c2=O)n1 [Compound I-32, (S)—N-(2-((1-(6-Chloro-2-oxo-1,2-dihydroquinolin-3-yl)ethyl)amino)pyrimidin-4-yl)-2-methoxyacetamide] |
| 100 to 1000 nM | CC(=O)N(CC(C)C)c1ccnc(NC(C)c2cc3cc(Cl)ccc3[nH]c2=O)n1 (stereo not drawn) [Compound I-34] |
| 100 to 1000 nM | C[C@H](Nc1nccc(-n2cccc2)n1)c1cc2cc(Cl)ccc2[nH]c1=O [Compound I-52] |
| < 100 nM | Cc1ncn(-c2ccnc(N[C@@H](C)c3cc4cc(Cl)ccc4[nH]c3=O)n2)c1C [Compound I-53, (S)-6-Chloro-3-(1-((4-(4,5-dimethyl-1H-imidazol-1-yl)pyrimidin-2-yl)amino)ethyl)quinolin-2(1H)-one] |
| 1000 to 10000 nM | Cc1nccn1-c1ccnc(N[C@@H](C)c2cc3cc(Cl)ccc3[nH]c2=O)n1 [Compound I-56] |
| 100 to 1000 nM | Cc1cn(-c2ccnc(N[C@@H](C)c3cc4cc(Cl)ccc4[nH]c3=O)n2)cn1 [Compound I-57] |
| 1000 to 10000 nM | C[C@H](Nc1nccc(-c2cncnc2)n1)c1cc2cc(Cl)ccc2[nH]c1=O [Compound I-62, (S)-3-(1-(4,5′-bipyrimidin-2-ylamino)ethyl)-6-chloroquinolin-2(1H)-one] |
| 100 to 1000 nM | C[C@H](Nc1nccc(-c2ccnn2C)n1)c1cc2cc(Cl)ccc2[nH]c1=O [Compound I-67, (S)-6-Chloro-3-(1-((4-(1-methyl-1H-pyrazol-5-yl)pyrimidin-2-yl)amino)ethyl)quinolin-2(1H)-one] |
| 1000 to 10000 nM | Cc1noc(C)c1-c1ccnc(N[C@@H](C)c2cc3cc(Cl)ccc3[nH]c2=O)n1 [Compound I-69] |
| 1000 to 10000 nM | C[C@H](Nc1nccc(-c2cnoc2)n1)c1cc2cc(Cl)ccc2[nH]c1=O [Compound I-70] |
| 1000 to 10000 nM | CC(=O)c1ccccc1-c1ccnc(N[C@@H](C)c2cc3cc(Cl)ccc3[nH]c2=O)n1 [Compound I-72] |
| 1000 to 10000 nM | CC(=O)Nc1ccccc1-c1ccnc(N[C@@H](C)c2cc3cc(Cl)ccc3[nH]c2=O)n1 [Compound I-73] |
| 1000 to 10000 nM | Cc1cc(-c2ccnc(N[C@@H](C)c3cc4cc(Cl)ccc4[nH]c3=O)n2)n(C)n1 [Compound I-76] |
| 1000 to 10000 nM | Cc1nn(C)cc1-c1ccnc(N[C@@H](C)c2cc3cc(Cl)ccc3[nH]c2=O)n1 [Compound I-77] |
| 1000 to 10000 nM | Cc1nc(C)c(-c2ccnc(N[C@@H](C)c3cc4cc(Cl)ccc4[nH]c3=O)n2)s1 [Compound I-78] |
| 1000 to 10000 nM | Cc1n[nH]c(C)c1-c1ccnc(N[C@@H](C)c2cc3cc(Cl)ccc3[nH]c2=O)n1 [Compound I-82] |
| 100 to 1000 nM | C[C@H](Nc1nccc(S(C)(=O)=O)n1)c1cc2cc(Cl)ccc2[nH]c1=O [Compound I-105, (S)-6-Chloro-3-(1-((4-(methylsulfonyl)pyrimidin-2-yl)amino)ethyl)quinolin-2(1H)-one] |
| 1000 to 10000 nM | CC(C)CSc1ccnc(N[C@@H](C)c2cc3cc(Cl)ccc3[nH]c2=O)n1 [Compound I-107] |
| 1000 to 10000 nM | C[C@H](Nc1nccc(SCc2ccccc2)n1)c1cc2cc(Cl)ccc2[nH]c1=O [Compound I-110] |
| 1000 to 10000 nM | C[C@H](Nc1nccc(N(C)C(=O)N(C)C)n1)c1cc2cc(Cl)ccc2[nH]c1=O [Compound I-125, (S)-1-(2-((1-(6-chloro-2-oxo-1,2-dihydroquinolin-3-yl)ethyl)amino)pyrimidin-4-yl)-1,3,3-trimethylurea] |
| > 10000 nM | C[C@H](Nc1nccc(NC(=O)N(C)C)n1)c1cc2cc(Cl)ccc2[nH]c1=O [Compound I-126, (S)-3-(2-((1-(6-chloro-2-oxo-1,2-dihydroquinolin-3-yl)ethyl)amino)pyrimidin-4-yl)-1,1-dimethylurea] |
| 100 to 1000 nM | C[C@H](Nc1nccc(Nc2ncco2)n1)c1cc2cc(Cl)ccc2[nH]c1=O [Compound I-127, (S)-6-Chloro-3-(1-((4-(oxazol-2-ylamino)pyrimidin-2-yl)amino)ethyl)quinolin-2(1H)-one] |
| 100 to 1000 nM | C[C@H](Nc1nccc(CC(N)=O)n1)c1cc2cc(Cl)ccc2[nH]c1=O [Compound I-130, (S)-2-(2-((1-(6-chloro-2-oxo-1,2-dihydroquinolin-3-yl)ethyl)amino)pyrimidin-4-yl) acetamide] |
| 100 to 1000 nM | CNC(=O)Cc1ccnc(N[C@@H](C)c2cc3cc(Cl)ccc3[nH]c2=O)n1 [Compound I-131] |
| 1000 to 10000 nM | C[C@H](Nc1nccc(CNS(C)(=O)=O)n1)c1cc2cc(Cl)ccc2[nH]c1=O [Compound I-132] |
| 1000 to 10000 nM | COC(=O)C(c1ccnc(N[C@@H](C)c2cc3cc(Cl)ccc3[nH]c2=O)n1)S(C)(=O)=O (stereo partly drawn) [Compound I-134] |
